Results as given in US6747008B1, “Methods for treating and preventing alopecia” (University of Southern California, priority 2000, dated 2004).
“Also recorded” adds a separate entry of the source. Where no end group is shown, it is not given here. [ ]: non-standard residue; d: D form. Nle = CCCC[C@H](N)C(=O)O

B1: Filgratim: filgrastim (NEUPOGEN, Amgen, Inc.), comparator arm (protein, chains of the INN, looked up)
chain: MTPLGPASSLPQSFLLKCLEQVRKIQGDGAALQEKLCATYKLCHPEELVLLGHSLGIPWAPLSSCPSQALQLAGCLSQLHSGLFLYQGLLQALEGISPELGPTLDTLQLDVADFATTIWQQMEELGMAPALQPTQGAMPAFASAFQRRAGGVLVASHLQSFLEVSYRVLRHLAQP

Experiments:
[1] = Fragments tested for effectiveness (test not specified)
[2] = system: patients with newly diagnosed breast cancer receiving doxorubicin and cyclophosphamide; assay: Phase I/II dose escalation study of AII(1-7) before and after chemotherapy; adverse event alopecia; format: in vivo, human; settings: for incidents of alopecia associated with chemotherapy: breast cancer patients, doxorubicin 60 mg/m2 and cyclophosphamide 600 mg/m2, subcutaneous once daily
Experimental: Dose escalation within an individual patient was not permitted.
Following the rest period, a chemotherapy regimen containing doxorubicin 60 mg/m^2 and cyclophosphamide 600 mg/m^2 was initiated.
An adverse event (AE) was considered any unfavorable or unintended change in structure, function, signs, or symptoms temporally associated with the use of a medicinal product experienced by a person administered a pharmaceutical product, whether or not a causal relationship with the product has been established. During the conduct of this clinical trial, study personnel asked open-ended questions to obtain information about AEs at every visit. Signs and symptoms were graded by the Investigator using the WHO toxicity criteria. For alopecia, no notation was made if there was no hair loss. If there was hair loss, it was graded as mild (1) or pronounced (2). In this trial, the incidents of alopecia associated with chemotherapy were as follows: […]

[3] = system: C57BL/Ksj-db/db diabetic mice; assay: Full-thickness excision model, mouse: hair follicle regeneration; format: in vivo; settings: day 26, topical in 10% CMC or subcutaneous, not observed in placebo
Experimental: (§1) Materials: The viscous vehicle was prepared from carboxymethylcellulose (CMC sodium salt, low viscosity, Sigma, St. Louis, Mo., Lot Number 34H0310) consisting of 10% low viscosity CMC in 0.05 M phosphate buffer, pH. 7.2, and sterilized by autoclaving followed by mixing with sterile peptide solutions. For subcutaneous administration, the peptides were dissolved in Lactated Ringers' Solution. […] 9GD (SEQ ID NO:41) was prepared by the Microchemical Core Laboratory at USC.
(§2) Surgical model: During the experimental period, C57BL/Ksj-db/db diabetic mice (Jackson Laboratories, Cold Spring Harbor, Me.) or Sprague Dawley rats were housed one per cage and maintained in a central animal care facility with a 12-hour light/dark cycle. Water and standard rodent laboratory chow were supplied ad libitum. All animals used for this study received humane care as defined by the National Research Council's criteria for humane care. The study protocols were approved by the University of Southern California's Institutional Animal Care and Use Committee before initiation of the studies.
Mouse Model: On day 0, C57BL/Ksj-db/db diabetic mice were anesthetized with intramuscular ketamine/xylazine and backs were swabbed with 70% isopropyl alcohol followed by betadine. Afterwards, a 1.3 cm diameter full thickness skin area was excised on the back of each mouse. […]

Sprague Dawley rats = assay: Full-thickness excision model, rat: hair follicle regeneration; format: in vivo; settings: day 21, topical in 10% CMC or subcutaneous, not observed in placebo
Experimental: as §1, §2
Rat Model: Female Sprague-Dawley rats, 175 to 200 grams, were anesthetized with intramuscular ketamine/rompun. The backs of the rats were shaved with animal clippers, scrubbed with betadine, and washed with 70% alcohol before surgery. […]

C57BL/6 mice = assay: Hair cycle synchronized animal model, cyclophosphamide induced alopecia; format: in vivo, mouse; settings: for mice with observable hair regrowth: day 13, 30 μg/kg/day, control 1 of 5; for percentage of the area with hair regrowth: day 13, FIG. 1; for number of mature hair follicles present: day 19, histology, FIG. 2
Text: Adolescent, 6- to 8-week-old female, C57BL/6 mice (Simonson, Gilroy, Calif.) with normal, black fur were purchased and housed in community cages with 12-hour light cycles with mouse chow and water ad libitum. In contrast to the mosaic cycling of human hair follicles, these mice display a unique hair cycle synchronization, which makes them a most productive model for hair research. Only mice in the resting stage of the hair cycle (telogen) are used for these studies. In the truncal skin of mice all melanocytes reside in hair follicles, and pigment production (melanogenesis) occurs exclusively in anagen follicles. Thus, telogen C57BL/6 mice can be recognized reliably by the homogeneously pink color of their back skin.
Predictable and highly synchronized anagen development can only be achieved with anagen induction by depilation, as opposed to spontaneous anagen development. Thus, anagen was induced in the back skin of telogen mice by depilation so that, at the start of pharmacological manipulation, all hair follicles in the depilated back skin area of all mice are in exactly the same stage of anagen development. As soon as anagen VI had been reached, all mice were injected once with a high dose of cyclophosphamide. In all experiments, control and test mice were then compared for signs of hair loss, for skin color changes indicating the effect of test drugs on hair cycling and follicle melanogenesis, and for hair regrowth.
Under ketamine hydrochloride-induced general anesthesia, telogen mice that had gone through several postnatal hair cycles were induced to enter anagen by depilation of all telogen hair shafts. This was done by applying a melted wax/rosin mixture to the back skin and by peeling off this mixture after hardening. By this technique, all depilated telogen hair follicles immediately begin to transform into anagen follicles with their associated melanogenesis.
As soon as early anagen VI had been reached by these induced anagen follicles, ie, on day 9 postdepilation (p.d.), a single intraperitoneal injection of cyclophosphamide was given (150 mg/kg).
Chemotherapy induced alopecia was manipulated pharmacologically by administration of the active agents of the present invention, topically or by subcutaneous injection once daily until necropsy. Pigmentation, hair regrowth, and follicle histology are analyzed as indicated. Particular attention is paid to any retarding or enhancing effects on the degree of alopecia, to the hair regrowth pattern, and to the pigmentation of regrowing hair shafts.
After the cyclophosphamide injection on day 9 p.d, the back skin of test and control mice were examined daily for a period of up to 32 days for signs of alopecia and color conversion from black to pink, indicating the progression of anagen follicles in the hair cycle via catagen to telogen. This color change results from the abrupt termination of melanogenesis in follicular melanocytes very early during catagen development. Visible changes were recorded and photodocumented. Starting 1 week after CYP injection, the skin was examined daily for signs of hair regrowth, skin repigmentation, and the quality of hair shaft pigmentation.
In C57BL/6 mice of this age group, depilation induced anagen follicles spontaneously enter catagen between days 17 and 20 p.d., mostly around day 18. The development of catagen follicles was indicated macroscopically by a change in skin color from black to light gray and occurs in large waves, appearing first in the neck region. then on the flanks, until finally the tail region enters catagen. Within 1 to 2 days after catagen induction, the follicle enters telogen, as indicated by a skin color change from gray to pink. […]

| Molecule | effectiveness [1] | incidents of alopecia associated with chemotherapy [2] | effect on alopecia in chemotherapy patients relative to control ([2]; chemotherapy patients) | microscopic examination of wound site: new adnexal structures (new hair follicles) [3] | microscopic examination of wound site: new adnexal structures (new hair follicles) (Sprague Dawley rats) | mice with observable hair regrowth (C57BL/6 mice) | percentage of the area with hair regrowth (C57BL/6 mice) | number of mature hair follicles present (C57BL/6 mice) |
| --- | --- | --- | --- | --- | --- | --- | --- | --- |
| His-Pro-Phe (HPF) [AII(6-8)] | not to be effective | – | – | – | – | – | – | – |
| Tyr-Ile-His-Pro-Phe (YIHPF) [AII(4-8)] | not to be effective; also recorded: ineffective | – | – | – | – | – | – | – |
| Asp-Arg-Val-Tyr-Ile-His-Pro [AII(1-7)] | – | 46% | significantly decreased alopecia | formation of new adnexal structures | formation of new adnexal structures | 4 of 5 | significantly increased | increased |
| DR(nor)YIHP (DR[Nle]YIHP) [Analogue 9GD] | – | – | – | formation of new adnexal structures | formation of new adnexal structures | 5 of 5 | significantly increased | increased |
| B1 | – | 40% | – | – | – | – | – | – |
